The values that follow come from US20080194546A1, “Pyrido-, Pyrazo- and Pyrimido-Pyrimidine Derivatives as mTOR Inhibitors” (KuDOS Pharmaceuticals Limited, priority 2005, published 2008).

The structures appear in SMILES notation.

The subject of one assay is T47D cells. Nature of the assay: Cell Proliferation Assay (GI50), sulforhodamine B (SRB) assay. Type of assay: cell-based. Conditions: for GI50: Homo sapiens, 120 hours, SRB. As to the method: Cell growth was assessed using the sulforhodamine B (SRB) assay (A). T47D (ECACC, 85102201) cells were routinely passaged in RPMI (Invitrogen, 42401018) plus 10% foetal calf serum (FCS), 1% L-glutamine (Gibco BRL, 25030) to a confluence not greater than 80%. To undertake the assay, T47D cells were seeded at 2.5×10^3 cells/well in […] RPMI plus 10% foetal calf serum, 1% L-glutamine in 96 well plates (Costar, 3904) and incubated at 37° C. (+5% CO2) in a humidified incubator. Once the cells had fully adhered (typically following 4-5 hours incubation) the plate was removed from the incubator and 10 μL of the diluent added to the control wells (A1-12 and B1-12). Compound was prepared in a six point semi-log dilution at 10× the final concentration required e.g. for a 6 point range of 30 μM to 100 nM in semi-log steps dilution started at 300 μM in stock plate. Dosing was completed by addition of 10 μL of compound at highest concentration to C1-12 through to the lowest concentration in H1-12. The plates were then incubated for 120 hours prior to SRB analysis.
Upon completion of incubation, media was removed and the cells fixed with […] of ice cold 10% (w/v) trichloroacetic acid. The plates were incubated at 4° C. for 20 minutes and then washed four times with water. Each well of cells was then stained with 100 μl of 0.4% (w/v) SRB (Sulforhodamine B, Sigma, Poole, Dorset, UK, Catalogue number S-9012) in 1% acetic acid for 20 minutes before washing four times with 1% acetic acid. Plates were then dried for 2 hours at room temperature. The dye from the stained cells was solubilized by the addition of 100 μl of 10 mM Tris Base into each well. Plates were gently shaken and left at room temperature for 30 minutes before measuring the optical density at 564 nm on a Microquant microtiter plate reader. The concentration of inhibitor eliciting a 50% reduction in growth (GI50) was determined by analysis of staining intensity of the treated cells as a percentage of the vehicle control wells using Excelfit software.
(A) Skehan, P., Storung, R., Scudiero, R., Monks, A., McMahon, J., Vistica, D., Warren, J. T., Bokesch, H., Kenny, S. and Boyd, M. R. (1990) New […] cytotoxicity assay for anticancer-drug screening. J. Natl. Cancer Inst. 82, 1107-1112.

For a further assay, the target named is T1, mTOR (Homo sapiens, UniProt P42345).
T1 construct: mTOR protein was isolated from HeLa cell cytoplasmic extract by immunoprecipitation; endogenous in cells; host or cells: HeLa cell cytoplasmic extract (immunoprecipitate)
Kind of assay: Biological Assay: mTOR enzyme activity, mTOR immunoprecipitated from HeLa cell cytoplasmic extract, recombinant PHAS-1 as substrate. Type of assay: biochemical. Conditions: Biological Assay; for IC50: upper bounds, read-out: IC50 values against mTOR.

From the text for mTOR: For mTOR enzyme activity assays, mTOR protein was isolated from HeLa cell cytoplasmic extract by immunoprecipitation, and activity determined essentially as described previously using recombinant PHAS-1 as a substrate (ref. 21).

What is called GI50 is the concentration at which growth is held to half of that of the control. Read a high GI50 as less potent growth inhibition. The IC50 is the concentration at which inhibition is half-maximal. `COc1ccc(-c2ccc3c(N4CCOCC4)nc(N4C[C@@H](C)O[C@@H](C)C4)nc3n2)cc1CNCCc1cccs1` [Example 8an]: the concentration for 50% growth inhibition (GI50) in the assay with T47D cells (upper bounds) was less than 300 nM. The IC50 on mTOR was less than 100 nM.
Taken in the same sequence, the figures for `COc1ccc(-c2ccc3c(N4CCOCC4)nc(N4C[C@@H](C)O[C@@H](C)C4)nc3n2)cc1CNC(c1ccccc1)c1ccccc1` [Example 8az] were less than 300 nM and less than 1000 nM.
Taken in the same sequence, the figures for `COc1ccc(-c2ccc3c(N4CCOCC4)nc(N4C[C@@H](C)O[C@@H](C)C4)nc3n2)cc1CNc1cc[nH]n1` [Example 8al] were less than 300 nM and less than 100 nM.
On the same counts, the results for `COc1ccc(-c2ccc3c(N4CCOCC4)nc(N4C[C@@H](C)O[C@@H](C)C4)nc3n2)cc1CNC1CC1` [Example 8b] are less than 300 nM and less than 100 nM.
For the molecule `COc1ccc(-c2ccc3c(N4CCOCC4)nc(N4C[C@@H](C)O[C@@H](C)C4)nc3n2)cc1CNCc1cccc([N+](=O)[O-])c1` [Example 8at], in the assay on T47D cells (upper bounds), the GI50 was less than 300 nM. Besides, the IC50 at mTOR is less than 1000 nM.
In the assay on T47D cells (upper bounds), `COc1ccc(-c2ccc3c(N4CCOCC4)nc(N4C[C@@H](C)O[C@@H](C)C4)nc3n2)cc1CNCc1ccccc1[35Cl]` [Example 8ax] had a GI50 of less than 300 nM. The IC50 at mTOR was less than 100 nM.
On the same counts, the results for `COc1ccc(-c2ccc3c(N4CCOCC4)nc(N4C[C@@H](C)O[C@@H](C)C4)nc3n2)cc1CNc1ccc(N2CCOCC2)cc1` [Example 8ay] are less than 300 nM and less than 1000 nM.
The molecule `COc1ccc(-c2ccc3c(N4CCOCC4)nc(N4C[C@@H](C)O[C@@H](C)C4)nc3n2)cc1CNCC(C)C` [Example 8u] displayed a 50% growth inhibitory concentration (GI50) in the assay on T47D cells (upper bounds) of less than 300 nM. For the same molecule, at mTOR, the IC50 was less than 1000 nM.
Taken in the same sequence, the figures for `COc1ccc(-c2ccc3c(N4CCOCC4)nc(N4C[C@@H](C)O[C@@H](C)C4)nc3n2)cc1CNCc1cccc(CN)c1` [Example 8ap] were less than 300 nM and less than 100 nM.
On the same counts, the results for `COc1ccc(-c2ccc3c(N4CCOCC4)nc(N4C[C@@H](C)O[C@@H](C)C4)nc3n2)cc1CNC1CCCC(C)C1C` (stereo partly drawn) [Example 8ag] are less than 300 nM and less than 100 nM.
As to `COc1ccc(-c2ccc3c(N4CCOCC4)nc(N4C[C@@H](C)O[C@@H](C)C4)nc3n2)cc1CNC1CCCCCCC1` [Example 8n], in the assay with T47D cells, the GI50 is less than 1000 nM. The concentration for half-maximal inhibition (IC50) on mTOR is less than 100 nM.
Regarding `COc1ccc(-c2ccc3c(N4CCOCC4)nc(N4C[C@@H](C)O[C@@H](C)C4)nc3n2)cc1CNCC1CCCO1` (stereo partly drawn) [Example 8aj], the GI50 with T47D cells (upper bounds) was less than 300 nM. Also, at mTOR, the IC50 is less than 100 nM.
As for `CCN(CC)CCCNCc1cc(-c2ccc3c(N4CCOCC4)nc(N4C[C@@H](C)O[C@@H](C)C4)nc3n2)ccc1OC` [Example 8h], the GI50 with T47D cells was less than 1000 nM. Moreover, the IC50 on mTOR is less than 100 nM.
In turn, `COc1ccc(-c2ccc3c(N4CCOCC4)nc(N4C[C@@H](C)O[C@@H](C)C4)nc3n2)cc1CNCC1CCCCC1O` (stereo partly drawn) [Example 8aa] yielded a GI50 in the assay with T47D cells of less than 1000 nM. Further, the IC50 at mTOR is less than 100 nM.
Regarding `CNCc1cc(-c2ccc3c(N4CCOCC4)nc(N4C[C@@H](C)O[C@@H](C)C4)nc3n2)ccc1OC` [Example 8f], the GI50 with T47D cells (upper bounds) is less than 300 nM. Moreover, at mTOR, the half-inhibitory concentration (IC50) was less than 100 nM.
On the same counts, the results for `COc1ccc(-c2ccc3c(N4CCOCC4)nc(N4C[C@@H](C)O[C@@H](C)C4)nc3n2)cc1CNC(C)CC(C)C` (stereo partly drawn) [Example 8t] are less than 300 nM and less than 1000 nM.
`COc1ccc(-c2ccc3c(N4CCOCC4)nc(N4C[C@@H](C)O[C@@H](C)C4)nc3n2)cc1CN[C@H](CO)CCSC` [Example 8bd]: in the assay on T47D cells (upper bounds), the GI50 is less than 300 nM. The concentration for half-maximal inhibition (IC50) at mTOR was less than 1000 nM.
For `CCOCCCNCc1cc(-c2ccc3c(N4CCOCC4)nc(N4C[C@@H](C)O[C@@H](C)C4)nc3n2)ccc1OC` [Example 8s], in the assay on T47D cells, the concentration for 50% growth inhibition (GI50) is less than 1000 nM. Also, on mTOR, the concentration for half-maximal inhibition (IC50) is less than 1000 nM.
In the assay with T47D cells (upper bounds), `COc1ccc(-c2ccc3c(N4CCOCC4)nc(N4C[C@@H](C)O[C@@H](C)C4)nc3n2)cc1CNCC(O)c1cccc(O)c1` (stereo partly drawn) [Example 8bb] yielded a GI50 of less than 300 nM. In addition, the IC50 at mTOR was less than 100 nM.
On the same counts, the results for `CCSCCNCc1cc(-c2ccc3c(N4CCOCC4)nc(N4C[C@@H](C)O[C@@H](C)C4)nc3n2)ccc1OC` [Example 8ak] are less than 300 nM and less than 100 nM.
In turn, `COc1ccc(-c2ccc3c(N4CCOCC4)nc(N4C[C@@H](C)O[C@@H](C)C4)nc3n2)cc1CNCCCc1ccccc1` [Example 8bc] displayed a 50% growth inhibitory concentration (GI50) in the assay with T47D cells (upper bounds) of less than 300 nM. Further, the IC50 at mTOR is less than 100 nM.
On the same counts, the results for `C[C@H]1CCCCN1c1nc(N2CCOCC2)c2ccc(-c3ccc(Cl)cc3)nc2n1` [Example 1g] are less than 300 nM and less than 100 nM.
Taken in the same sequence, the figures for `COc1ccc(-c2ccc3c(N4CCOCC4)nc(N4C[C@@H](C)O[C@@H](C)C4)nc3n2)cc1CNCC1CCCCCC1O` (stereo partly drawn) [Example 8ab] were less than 300 nM and less than 100 nM.
On the same counts, the results for `COc1ccc(-c2ccc3c(N4CCOCC4)nc(N4C[C@@H](C)O[C@@H](C)C4)nc3n2)cc1CNCc1ccc2c(c1)OCO2` [Example 8bg] are less than 300 nM and less than 100 nM.
Turning to `COc1ccc(-c2ccc3c(N4CCOCC4)nc(N4C[C@@H](C)O[C@@H](C)C4)nc3n2)cc1CNC(C)CO` (stereo partly drawn) [Example 8aq], in the assay with T47D cells (upper bounds), the GI50 was less than 300 nM. The IC50 at mTOR is less than 100 nM.
On the same counts, the results for `C=CCOC(=O)[C@H](CC(C)C)NCc1cc(-c2ccc3c(N4CCOCC4)nc(N4C[C@@H](C)O[C@@H](C)C4)nc3n2)ccc1OC` [Example 8af] are less than 300 nM and less than 1000 nM.
With `COc1ccc(-c2ccc3c(N4CCOCC4)nc(N4CCOC[C@@H]4C)nc3n2)cc1CO` [Comparative Example 1a, reference compound], the “GI50 of Comparative Examples compared to the corresponding Examples” value with T47D cells (comparison in words) was “GI50 Comparative Example 1a>GI50 Example 11a”. Also, the “IC50 of Comparative Examples compared to the corresponding Examples” value at mTOR (comparison in words) is given as “IC50 Comparative Example 1a>IC50 Example 11a”.
Consider `COc1ccc(-c2ccc3c(N4CCOCC4)nc(N4C[C@@H](C)O[C@@H](C)C4)nc3n2)cc1CNCc1ccc([35Cl])cc1[35Cl]` [Example 8aw], for which, in the assay on T47D cells (upper bounds), the GI50 is less than 300 nM. Besides, on mTOR, the 50% inhibitory concentration (IC50) was less than 100 nM.
Taken in the same sequence, the figures for `COc1ccc(-c2ccc3c(N4CCOCC4)nc(N4C[C@@H](C)O[C@@H](C)C4)nc3n2)cc1CNC1CCCC1` [Example 8k] were less than 300 nM and less than 100 nM.
Take `COc1ccc(-c2ccc3c(N4CCOCC4)nc(N4C[C@@H](C)O[C@@H](C)C4)nc3n2)cc1CNC1CCC(C)CC1` (stereo partly drawn) [Example 8p]: the 50% growth inhibitory concentration (GI50) with T47D cells is less than 1000 nM. Besides, the IC50 on mTOR is less than 1000 nM.
`COc1ccc(-c2ccc3c(N4CCOCC4)nc(N4C[C@@H](C)O[C@@H](C)C4)nc3n2)cc1CNCCc1cnc[nH]1` [Example 8c] returned a GI50 in the assay with T47D cells of less than 1000 nM. In addition, on mTOR, the half-inhibitory concentration (IC50) was less than 100 nM.
In turn, `CCCCNCc1cc(-c2ccc3c(N4CCOCC4)nc(N4C[C@@H](C)O[C@@H](C)C4)nc3n2)ccc1OC` [Example 8l] showed a GI50 in the assay on T47D cells (upper bounds) of less than 300 nM. Also, the IC50 at mTOR was less than 100 nM.
Taken in the same sequence, the figures for `COc1ccc(-c2ccc3c(N4CCOCC4)nc(N4C[C@@H](C)O[C@@H](C)C4)nc3n2)cc1CNCCCCCNC(=O)OC(C)(C)C` [Example 8as] were less than 300 nM and less than 100 nM.
On the same counts, the results for `COc1ccc(-c2ccc3c(N4CCOCC4)nc(N4C[C@@H](C)O[C@@H](C)C4)nc3n2)cc1CNCc1ccc(F)cc1` [Example 8ah] are less than 300 nM and less than 100 nM.
Taken in the same sequence, the figures for `COc1ccc(-c2ccc3c(N4CCOCC4)nc(N4C[C@@H](C)O[C@@H](C)C4)nc3n2)cc1CNC(C)C` [Example 8r] were less than 300 nM and less than 1000 nM.
For `CCCCCOc1ccc(NCc2cc(-c3ccc4c(N5CCOCC5)nc(N5C[C@@H](C)O[C@@H](C)C5)nc4n3)ccc2OC)cc1` [Example 8bf], in the assay with T47D cells (upper bounds), the GI50 was less than 300 nM. For the same molecule, the 50% inhibitory concentration (IC50) on mTOR is less than 1000 nM.
On the same counts, the results for `COc1ccc(-c2ccc3c(N4CCOCC4)nc(N4C[C@@H](C)O[C@@H](C)C4)nc3n2)cc1CNCCSCCO` [Example 8ad] are less than 300 nM and less than 100 nM.
On to `COc1ccc(-c2ccc3c(N4CCOCC4)nc(N4C[C@@H](C)O[C@@H](C)C4)nc3n2)cc1CNCC1CC1` [Example 8g], for which the GI50 in the assay with T47D cells (upper bounds) is less than 300 nM. Moreover, the IC50 at mTOR is less than 100 nM.
Turning to `COc1ccc(-c2ccc3c(N4CCOCC4)nc(N4C[C@@H](C)O[C@@H](C)C4)nc3n2)cc1CNCCO` [Example 8d], the GI50 in the assay on T47D cells (upper bounds) is less than 300 nM. In addition, the IC50 on mTOR is less than 100 nM.
